Key:
ER-α [1] = target: T1, ER-α (Homo sapiens, UniProt P03372); assay: ER-α in Cell Western Assay (SP1); format: cell-based; details: MCF-7 cells, SP1 rabbit monoclonal Ab, 4 or 24 hr post compound addition, read-out: ER In-Cell Western Assay (SP1); for Emax: MCF7, Max Response; for DC50: IC50
T1 construct: endogenous in cells; host or cells: MCF-7
T1 sequence (P03372 1-595): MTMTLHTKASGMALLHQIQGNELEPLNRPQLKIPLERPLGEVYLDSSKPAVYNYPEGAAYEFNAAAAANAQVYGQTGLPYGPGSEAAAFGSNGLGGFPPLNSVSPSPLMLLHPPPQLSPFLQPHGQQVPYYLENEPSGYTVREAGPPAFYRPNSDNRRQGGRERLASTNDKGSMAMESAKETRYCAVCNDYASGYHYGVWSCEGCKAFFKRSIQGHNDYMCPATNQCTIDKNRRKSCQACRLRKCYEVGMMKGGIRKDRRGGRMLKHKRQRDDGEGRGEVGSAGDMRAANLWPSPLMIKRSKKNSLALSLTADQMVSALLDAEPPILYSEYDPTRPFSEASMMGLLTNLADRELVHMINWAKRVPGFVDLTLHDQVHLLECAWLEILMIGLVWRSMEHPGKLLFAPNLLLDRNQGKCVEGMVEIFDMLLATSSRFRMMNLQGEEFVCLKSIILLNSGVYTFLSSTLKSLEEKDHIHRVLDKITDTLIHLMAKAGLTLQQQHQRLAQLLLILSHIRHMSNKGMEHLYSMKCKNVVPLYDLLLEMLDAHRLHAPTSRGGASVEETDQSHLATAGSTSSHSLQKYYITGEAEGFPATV
Procedure, shortened: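 MCF-7 cells in charcoal-stripped FBS medium treated with 11-point semilog dilutions (0.3–0.000003 μM final) for 4 or 24 hr, then fixed and immunostained with SP1 anti-ER antibody. ER signal (800 nm) normalized to DRAQ5 DNA signal (700 nm) and expressed as % of untreated cells.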

ER-α [2] = target: T1, ER-α; assay: ER-α In Cell Western Assay (ER1D5); format: cell-based; details: MCF-7 cells, ER1D5 antibody, 4 or 24 hr post compound addition, read-out: ER In-Cell Western Assay (ER1D5); for Emax: MCF7, Max Response; for DC50: IC50
Procedure, shortened: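 MCF-7 cells in RPMI with 10% charcoal-stripped FBS treated with 11-point semilog series (0.3–0.000003 μM final) for 4 or 24 h. Fixed cells stained with ER1D5 plus IRDye 800CW secondary and DRAQ5; ER level = 800/700 nm intensity ratio as % of untreated cells.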

MCF-7 cells = assay: Breast Cancer Cell Viability Assay (MCF7 Viability Assay); format: cell-based; details: 5 days' compound exposure, CellTiter-Glo; for IC50: Homo sapiens, MCF7, 120 h
Procedure, shortened: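 MCF-7 cells, 320 per well in RPMI with 10% FBS and 20 mM HEPES, adhered overnight, then exposed 5 days to an eleven-point semilog dilution (final 0.3–0.000003 μM). CellTiter-Glo luminescence; % viability relative to untreated cells after subtracting cell-free background.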

MCF-7 tumors = assay: Xenograft Assay (MCF-7 Derivative), tamoxifen treatment of MCF-7 tumors; format: in vivo; details: female nu/nu mice with 17-β estradiol pellets bearing MCF-7 tumors, oral gavage
Description: Female nu/nu mice (with supplemental 17-P3 Estradiol pellets; 0.72 mg; 60 day slow release) bearing MCF-7 tumors (mean tumor volume 200 mm^3) were treated with Tamoxifen (citrate) by oral gavage. Tumor volume (length×width^2/2) and body weight were monitored twice weekly. […] At 120 days of treatment, tamoxifen dose was increased. Rapidly growing tumors were deemed tamoxifen resistant and selected for in vivo passage into new host animals. Tumor Fragments (˜100 mm^3/animal) from the tamoxifen resistant tumors were subcutaneously implanted into the right flank of female nu/nu mice (with 17-P3 Estradiol pellets (0.72 mg; 60 day slow release)). Passaged tumors were maintained under constant Tamoxifen selection and Tumor volume (length×width^2/2) monitored weekly. When tumor volume reached ˜150-250 mm^3, animals were randomized into treatment groups (mean tumor volume 200 mm^3) and tamoxifen treatment was terminated (except for a tamoxifen control arm). Animals were treated with Vehicle or test compound daily for 4 weeks. Tumor volume and body weight were monitored twice weekly for the duration of the study. At the conclusion of the treatment period; plasma and tumor samples were taken for pharmacokinetic and pharmacodynamic analyses, respectively.

SMILES	Emax (ER-α [1]) [%]	DC50 (ER-α [1]) [nM]	Emax (ER-α [2]) [%]	DC50 (ER-α [2]) [nM]	IC50 (MCF-7 cells) [nM]	MCF7 Viability Assay Max Response (MCF-7 cells)	anti-tumor response (tumor volume) (MCF-7 tumors)	time at which evident tumor growth was first observed (MCF-7 tumors)
CC1=C(c2ccc(O)c(F)c2)C(c2ccc(OC[C@H](C)N3CC[C@@H](C)C3)cc2)Oc2ccc(O)cc21 (stereo partly drawn) [Example 33, 3-(3-Fluoro-4-hydroxyphenyl)-4-methyl-2-(4-((S)-2-((R)-3-methylpyrrolidin-1-yl)propoxy)phenyl)-2H-chromen-6-ol]	≥ 85	≤ 1	≥ 65	≤ 1	≤ 1	++ (++ = a single % value ≧50%)		
CC1=C(c2cccc(O)c2)C(c2ccc(OC[C@H](C)N3CC[C@@H](C)C3)cc2F)Oc2ccc(O)cc21 (stereo partly drawn) [Example 35, 2-(2-Fluoro-4-((S)-2-((R)-3-methylpyrrolidin-1-yl)propoxy)phenyl)-3-(3-hydroxyphenyl)-4-methyl-2H-chromen-6-ol]	≥ 85	≤ 1	≥ 65	≤ 1	≤ 1	++ (++ = a single % value ≧50%)		
CC1=C(c2ccc(C)c(O)c2)C(c2ccc(OC[C@H](C)N3CC[C@@H](C)C3)cc2)Oc2ccc(O)cc21 (stereo partly drawn) [Example 39, 3-(3-Hydroxy-4-methylphenyl)-4-methyl-2-(4-((S)-2-((R)-3-methylpyrrolidin-1-yl)propoxy)phenyl)-2H-chromen-6-ol]	60 to 85	> 1	≥ 65	> 1	> 1	++ (++ = a single % value ≧50%)		
CC1=C(c2ccc(Br)cc2)C(c2ccc(OC[C@H](C)N3CC[C@@H](C)C3)cc2)Oc2ccc(O)cc21 (stereo partly drawn) [Example 54, 3-(4-Bromophenyl)-4-methyl-2-(4-((S)-2-((R)-3-methylpyrrolidin-1-yl)propoxy)phenyl)-2H-chromen-6-ol]	60 to 85	> 1	≥ 65	> 1	> 1	++ (++ = a single % value ≧50%)		
CC1=C(c2ccccc2C)C(c2ccc(OC[C@H](C)N3CC[C@@H](C)C3)cc2)Oc2ccc(O)cc21 (stereo partly drawn) [Example 56, 4-Methyl-2-(4-((S)-2-((R)-3-methylpyrrolidin-1-yl)propoxy)phenyl)-3-(o-tolyl)-2H-chromen-6-ol]	60 to 85	≤ 1	≥ 65	≤ 1	≤ 1	++ (++ = a single % value ≧50%)		
CC1=C(c2ccc(F)c(O)c2)C(c2ccc(OC[C@H](C)N3CC[C@@H](C)C3)cc2)Oc2ccc(O)cc21 (stereo partly drawn) [Example 57, 3-(4-Fluoro-3-hydroxyphenyl)-4-methyl-2-(4-((S)-2-((R)-3-methylpyrrolidin-1-yl)propoxy)phenyl)-2H-chromen-6-ol]	≥ 85	≤ 1	≥ 65	≤ 1	≤ 1	++ (++ = a single % value ≧50%)		
C#Cc1ccc(C2=C(C)c3cc(O)ccc3OC2c2ccc(OC[C@H](C)N3CC[C@@H](C)C3)cc2)cc1 (stereo partly drawn) [Example 58, 3-(4-Ethynylphenyl)-4-methyl-2-(4-((S)-2-((R)-3-methylpyrrolidin-1-yl)propoxy)phenyl)-2H-chromen-6-ol]	60 to 85	≤ 1	≥ 65	> 1	> 1	++ (++ = a single % value ≧50%)		
CC1=C(c2ccc(S(C)(=O)=O)cc2)C(c2ccc(OC[C@H](C)N3CC[C@@H](C)C3)cc2)Oc2ccc(O)cc21 (stereo partly drawn) [Example 59, 4-Methyl-2-(4-((S)-2-((R)-3-methylpyrrolidin-1-yl)propoxy)phenyl)-3-(4-(methylsulfonyl)phenyl)-2H-chromen-6-ol]	60 to 85	> 1	40 to 65	> 1	> 1	++ (++ = a single % value ≧50%)		
CC/C(=C(\c1ccccc1)c1ccc(OCCN(C)C)cc1)c1ccccc1 [Tamoxifen, tamoxifen]							tumor volume remained static	approximately 100 days of treatment

More lines, main results first:

Emax (ER-α [1]) [%]	DC50 (ER-α [1]) [nM]	Emax (ER-α [2]) [%]	DC50 (ER-α [2]) [nM]	IC50 (MCF-7 cells) [nM]	SMILES	MCF7 Viability Assay Max Response (MCF-7 cells)	anti-tumor response (tumor volume) (MCF-7 tumors)	time at which evident tumor growth was first observed (MCF-7 tumors)
60 to 85	≤ 1	40 to 65	≤ 1	≤ 1	CC1=C(c2cccc(O)c2)C(c2ccc(OCCN3CCCC3)cc2F)Oc2ccc(O)cc21 (centres unmarked) [Example 34, 2-(2-Fluoro-4-(2-(pyrrolidin-1-yl)ethoxy)phenyl)-3-(3-hydroxyphenyl)-4-methyl-2H-chromen-6-ol]	++ (++ = a single % value ≧50%)		
60 to 85	≤ 1	40 to 65	≤ 1	≤ 1	CC1=C(c2cccc(O)c2)C(c2ccc(OCCN3CCCC3)cc2)Oc2ccc(O)cc21 (centres unmarked) [Example 36, 3-(3-Hydroxyphenyl)-4-methyl-2-(4-(2-(pyrrolidin-1-yl)ethoxy)phenyl)-2H-chromen-6-ol]	++ (++ = a single % value ≧50%)		
60 to 85	≤ 1	40 to 65	≤ 1	≤ 1	CC1=C(c2cccc(O)c2)C(c2ccc(OC[C@H](C)N3CCC3)cc2)Oc2ccc(O)cc21 (stereo partly drawn) [Example 37, 2-(4-((S)-2-(Azetidin-1-yl)propoxy)phenyl)-3-(3-hydroxyphenyl)-4-methyl-2H-chromen-6-ol]	++ (++ = a single % value ≧50%)		
60 to 85	≤ 1	40 to 65	≤ 1	≤ 1	CC1=C(c2cccc(O)c2)C(c2ccc(OCCN3CCC3)cc2)Oc2ccc(O)cc21 (centres unmarked) [Example 38, 2-(4-(2-(Azetidin-1-yl)ethoxy)phenyl)-3-(3-hydroxyphenyl)-4-methyl-2H-chromen-6-ol]	++ (++ = a single % value ≧50%)		
60 to 85	≤ 1	40 to 65	≤ 1	≤ 1	CC1=C(c2cccc(O)c2)C(c2ccc(OCCN3CCC[C@@H](C)C3)cc2)Oc2ccc(O)cc21 (stereo partly drawn) [Example 53, 3-(3-Hydroxyphenyl)-4-methyl-2-(4-(2-((R)-3-methylpiperidin-1-yl)ethoxy)phenyl)-2H-chromen-6-ol]	++ (++ = a single % value ≧50%)		
60 to 85	≤ 1	40 to 65	> 1	> 1	CC1=C(c2ccc(F)cc2)C(c2ccc(OCCN3CCCC3)cc2)Oc2ccc(O)cc21 (centres unmarked) [Example 55, 3-(4-Fluorophenyl)-4-methyl-2-(4-(2-(pyrrolidin-1-yl)ethoxy)phenyl)-2H-chromen-6-ol]	++ (++ = a single % value ≧50%)		

Source: patent US9078871B2, “Estrogen receptor modulators and uses thereof” (SERAGON PHARMACEUTICALS, INC., priority 2010, dated 2015)
